In general, IC50 refers to the point on the concentration scale where inhibition reaches its midpoint.

The assay concerns the target T1, SARS2 protease (Severe acute respiratory syndrome coronavirus 2, UniProt P0DTD1).
T1 construct: SARS2 protease was added to a final concentration of 30 nM
Briefly: SARS-CoV-2 protease inhibition assay (SARS2 FRET protease assay). As to conditions: IC50 (μM), SARS2 protease 30 nM, peptide substrate 1.3 μM, 120 minutes at 37° C., compounds 20 μM to 0.075 nM. The assay is classed as biochemical.

In the case of `CCCC[C@H](NC(=O)OC(c1ccccc1)C(F)(F)c1cccc(F)c1)C(=O)N[C@@H](CC1CCNC1=O)C(=O)C(=O)NCC` (stereo in doubt) [Compound A173, 2,2-difluoro-2-(3-fluorophenyl)-1-phenylethyl ((S)-1-(((S)-4-(ethylamino)-3,4-dioxo-1-((S)-2-oxopyrrolidin-3-yl)butan-2-yl)amino)-1-oxohexan-2-yl)carbamate], the IC50 stood at 0.0386 µM. On to `CC(C)C[C@H](NC(=O)OC(c1ccc(F)cc1)C(F)(F)c1cccc(Cl)c1)C(=O)N[C@H](C=O)C[C@@H]1CCNC1=O` (stereo partly drawn) [Compound A1], for which the IC50 came out at 0.0001 µM. The figure for `CC(C)C[C@H](NC(=O)OC(c1ccccc1)C(F)(F)c1cccc(F)c1)C(=O)N[C@H](C=O)C[C@@H]1CCNC1=O` (stereo partly drawn) [Compound A2] is 0.004 µM; for `CC(C)C[C@H](NC(=O)OC(c1ccccc1)C1(c2cccc(Cl)c2)CCCCC1)C(=O)N[C@@H](C[C@@H]1CCNC1=O)C(=O)C(=O)NC1CC1` (stereo partly drawn) [Compound A3] it is 0.52 µM; for `CC(C)C[C@H](NC(=O)O[C@@H](c1ccccc1)C(C)(C)c1cccc(Cl)c1)C(=O)N[C@@H](C[C@@H]1CCNC1=O)C(=O)C(=O)NC1CC1` [Compound A4] it is 0.8 µM. The figure for `CC(C)C[C@H](NC(=O)O[C@H](c1ccccc1)C(C)(C)c1cccc(Cl)c1)C(=O)N[C@@H](C[C@@H]1CCNC1=O)C(=O)C(=O)NC1CC1` [Compound A5] is 2.79 µM. `CCC(CC)(c1cccc(Cl)c1)C(OC(=O)N[C@@H](CC(C)C)C(=O)N[C@@H](C[C@@H]1CCNC1=O)C(=O)C(=O)NC1CC1)c1ccccc1` (stereo partly drawn) [Compound A6] displayed an IC50 of 0.24 µM.

For the molecule `CC(C)C[C@H](NC(=O)OC(c1cccc(Cl)c1)C1(c2cccc(Cl)c2)CCC1)C(=O)N[C@H](C=O)C[C@@H]1CCNC1=O` (stereo partly drawn) [Compound A7], the IC50 is 0.12 µM. For `CCCCCOC(=O)N[C@@H](CC(C)C)C(=O)N[C@@H](C[C@@H]1CCNC1=O)C(=O)C(=O)NC1CCN(C)CC1` [Compound A8] the value was 15 µM. The molecule `CC(C)C[C@H](NC(=O)O[C@H](c1ccc(F)cc1)C(F)(F)c1cccc(Cl)c1)C(=O)N[C@@H](C[C@@H]1CCNC1=O)C(=O)C(=O)NC1CC1` [Compound A9] showed an IC50 of 0.0001 µM.

The molecule `CC(C)C[C@H](NC(=O)OC(c1ccccc1)C(F)(F)c1cccc(F)c1)C(=O)N[C@@H](C[C@@H]1CCNC1=O)C(=O)C(=O)NC1CC1` (stereo partly drawn) [Compound A10] gave an IC50 of 0.005 µM. `CC(C)C[C@H](NC(=O)OC(c1cccc(F)c1)C(C)(C)c1cccc(Cl)c1)C(=O)N[C@H](C=O)C[C@@H]1CCNC1=O` (stereo partly drawn) [Compound A11] returned an IC50 of 0.0001 µM.

Regarding `CCCCCOC(=O)N[C@@H](CC(C)C)C(=O)N[C@@H](C[C@@H]1CCNC1=O)C(=O)C(=O)NC1CC1` [Compound A12], the IC50 is 0.876 µM.

On to `CCCCCOC(=O)N[C@@H](CC(C)C)C(=O)N[C@H](C=O)C[C@@H]1CCNC1=O` [Compound A13], for which the half-maximal inhibitory concentration (IC50) was 0.08 µM. Consider `CCC(CC)(c1cccc(Cl)c1)C(OC(=O)N[C@@H](CC(C)C)C(=O)N[C@@H](C[C@@H]1CCNC1=O)C(=O)C(=O)NC1CC1)c1ccc(F)cc1` (stereo partly drawn) [Compound A14], for which half-maximal inhibition (IC50) required 0.09 µM. `CC(C)C[C@H](NC(=O)O[C@H](c1cccc(F)c1)C(C)(C)c1cccc(Cl)c1)C(=O)N[C@@H](C[C@@H]1CCNC1=O)C(=O)C(=O)NC1CC1` [Compound A15] returned an IC50 of 0.31 µM. `CC(C)C[C@H](NC(=O)OC(c1cccc(Cl)c1)C1(c2cccc(Cl)c2)CCC1)C(=O)N[C@@H](C[C@@H]1CCNC1=O)C(=O)C(=O)NC1CC1` (stereo partly drawn) [Compound A16] came in with an IC50 of 0.38 µM.

`CCN1CCC(NC(=O)C(=O)[C@H](C[C@@H]2CCNC2=O)NC(=O)[C@H](CC(C)C)NC(=O)OC(c2ccccc2)C(CC)(CC)c2cccc(Cl)c2)CC1` (stereo partly drawn) [Compound A17] displayed a half-maximal inhibitory concentration (IC50) of 30.3 µM. For the molecule `CCC(CC)(c1cccc(Cl)c1)C(OC(=O)N[C@@H](CC(C)C)C(=O)N[C@H](C=O)C[C@@H]1CCNC1=O)c1ccc(F)c(F)c1` (stereo partly drawn) [Compound A18], 0.01 µM corresponded to half-maximal inhibition (IC50).

`CCCCC[C@H](NC(=O)OC(c1ccccc1)C(F)(F)c1cccc(Cl)c1)C(=O)N[C@H](C=O)C[C@@H]1CCNC1=O` (stereo partly drawn) [Compound A19] had an IC50 of 0.007 µM. With `O=C[C@H](C[C@@H]1CCNC1=O)NC(=O)[C@H](CC1CCCCC1)NC(=O)OC(c1ccccc1)C(F)(F)c1cccc(Cl)c1` (stereo partly drawn) [Compound A20], inhibition was half-maximal at 0.0003 µM (IC50). The molecule `O=C(N[C@@H](CC1CCCCC1)C(=O)N[C@@H](C[C@@H]1CCNC1=O)C(=O)C(=O)NC1CC1)OC(c1ccccc1)C(F)(F)c1cccc(Cl)c1` (stereo partly drawn) [Compound A21] returned an IC50 of 0.06 µM. The molecule `CCC(CC)(c1cccc(Cl)c1)C(OC(=O)N[C@@H](CC(C)C)C(=O)N[C@@H](C[C@@H]1CCNC1=O)C(=O)C(=O)NC1CC1)c1ccc(F)c(F)c1` (stereo partly drawn) [Compound A22] came in with an IC50 of 0.32 µM.

The molecule `CCCCCOC(=O)N[C@@H](CC(C)C)C(=O)N[C@@H](C[C@@H]1CCNC1=O)C(=O)C(=O)NC1CCCCC1` [Compound A24] gave an IC50 of 21.4 µM. On to `CC(C)C[C@H](NC(=O)O[C@H](c1cccc(Cl)c1)C1(c2cccc(Cl)c2)CC1)C(=O)N[C@@H](C[C@@H]1CCNC1=O)C(=O)C(=O)NC1CC1` [Compound A30], for which 0.1 µM corresponded to half-maximal inhibition (IC50). The figure for `CC(C)C[C@H](NC(=O)O[C@@H](c1cccc(Cl)c1)C1(c2cccc(Cl)c2)CC1)C(=O)N[C@@H](C[C@@H]1CCNC1=O)C(=O)C(=O)NC1CC1` [Compound A31] is 0.007 µM; for `CCN1CCC(NC(=O)C(=O)[C@H](C[C@@H]2CCNC2=O)NC(=O)[C@H](CC(C)C)NC(=O)OC(c2ccc(F)cc2)C(CC)(CC)c2cccc(Cl)c2)CC1` (stereo partly drawn) [Compound A32] it is 10.1 µM; for `CCCCC[C@H](NC(=O)O[C@@H](c1ccccc1)C(F)(F)c1cccc(Cl)c1)C(=O)N[C@@H](C[C@@H]1CCNC1=O)C(=O)C(=O)NC1CC1` [Compound A33] it is 0.3 µM. For `CC(C)(c1cccc(F)c1)C(OC(=O)N[C@@H](CC1CCCCC1)C(=O)N[C@H](C=O)C[C@@H]1CCNC1=O)c1ccccc1` (stereo partly drawn) [Compound A34] the value was 0.0001 µM. In turn, `CCC(CC)(c1cccc(Cl)c1)C(OC(=O)N[C@@H](CC(C)C)C(=O)N[C@@H](C[C@@H]1CCNC1=O)C(=O)C(=O)NC1CC1)c1cccc(Cl)c1` (stereo partly drawn) [Compound A35] came in with an IC50 of 1.07 µM. Molecule `CC(C)C[C@H](NC(=O)OC(c1ccc(Cl)cc1)C1(c2cccc(Cl)c2)CCCCC1)C(=O)N[C@@H](C[C@@H]1CCNC1=O)C(=O)C(=O)NC1CC1` (stereo partly drawn) [Compound A36] had an IC50 of 1.15 µM. For `CCCC[C@H](NC(=O)OC(c1ccccc1)C(C)(C)c1cccc(F)c1)C(=O)N[C@H](C=O)C[C@@H]1CCNC1=O` (stereo partly drawn) [Compound A37] the value was 0.91 µM. For `CC(C)C[C@H](NC(=O)O[C@H](c1cccc(Cl)c1)C1(c2cccc(Cl)c2)CC1)C(=O)N[C@H](C=O)C[C@@H]1CCNC1=O` [Compound A38] the value was 0.0034 µM; for `CC(C)C[C@H](NC(=O)OC(c1ccccc1)C(C)(C)c1cccc(F)c1)C(=O)NC(C)(C=O)C[C@@H]1CCNC1=O` (stereo partly drawn) [Compound A39], 2.3 µM. `CCCC[C@H](NC(=O)OC(c1ccccc1)C1(c2cccc(F)c2)CC1)C(=O)N[C@H](C=O)C[C@@H]1CCNC1=O` (stereo partly drawn) [Compound A40] came in with an IC50 of 0.003 µM. `CC(C)C[C@H](NC(=O)OC(c1ccccc1)C(F)(F)c1cccc(Cl)c1)C(=O)N[C@H](C#N)C[C@@H]1CCNC1=O` (stereo partly drawn) [Compound A41] displayed an IC50 of 2.29 µM.

Values taken from patent publication US20240398757A1 (COCRYSTAL PHARMA, INC., priority 2022, published 2024).
